Among the data in ChEMBL document CHEMBL1687873, “Virtual screening studies on HIV-1 reverse transcriptase inhibitors to design potent leads” (Eur J Med Chem, 2011) are IC50 values, retold here.

The target of the assay is Human immunodeficiency virus type 1 reverse transcriptase (Human immunodeficiency virus 1, UniProt Q72547). Description: Inhibition of Human immunodeficiency virus 1 reverse transcriptase.
Take `CCOCC1C(=S)NC(=O)C(CC)=C1Sc1ccccc1` (centres undefined): the IC50 – broadly, the point on the concentration scale where inhibition reaches its midpoint – turned out to be 137 nM. In other words, the sub-micromolar range.
The value for `CCC1=C(Sc2cc(C)cc(C)c2)C(COCCO)C(=O)NC1=O` (centres undefined) was 80 nM.
`CC1=C(Sc2cc(C)cc(C)c2)C(COCCO)C(=O)NC1=O` (centres undefined) yielded an IC50 of 24 nM.
`CCC1=C(Sc2ccccc2)C(COCC2CCCCC2)C(=S)NC1=O` (centres undefined) yielded an IC50 of 375 nM.
To `CCOCC1C(=S)NC(=O)C(CC)=C1Sc1cc(C)cc(C)c1` (centres undefined) belongs 300 nM; to `CC1=C(Sc2ccccc2)C(COCc2ccccc2)C(=O)NC1=O` (centres undefined), 111 nM; to `CC1=C(Sc2cccc(I)c2)C(COCCO)C(=O)NC1=O` (centres undefined), 4 nM.
To `Cc1cc(C)cc(SC2=C(C(C)C)C(=O)NC(=O)C2COCCO)c1` (centres undefined) belongs 54 nM; to `CC1=C(Sc2cc(Cl)cc(Cl)c2)C(COCCO)C(=O)NC1=O` (centres undefined), 27 nM.
In the case of `CCC1=C(Sc2ccccc2)C(COC2CCCCC2)C(=S)NC1=O` (centres undefined), the midpoint of inhibition, the IC50, lay at 240 nM.
The value for `CC1=C(Sc2cccc(Br)c2)C(COCCO)C(=O)NC1=O` (centres undefined) was 3.1 nM.
For `CCOCC1C(=O)NC(=O)C(CC)=C1Sc1ccccc1` (centres undefined), inhibition was half-maximal at 100 nM (IC50).
To `CCC1=C(Sc2ccccc2)C(COCCc2ccccc2)C(=S)NC1=O` (centres undefined) belongs 473 nM.
As for `CC1=C(Sc2cccc(Cl)c2)C(COCCO)C(=O)NC1=O` (centres undefined), half-maximal inhibition (IC50) was put at 2.2 nM.
The value for `CC1=C(Sc2cccc([N+](=O)[O-])c2)C(COCCO)C(=O)NC1=O` (centres undefined) was 5.4 nM.
To `CCC1=C(Sc2ccccc2)C(COCc2ccc(Cl)cc2)C(=S)NC1=O` (centres undefined) belongs 404 nM; to `CC1=C(Sc2cccc(F)c2)C(COCCO)C(=O)NC1=O` (centres undefined), 1.7 nM; to `CC1=C(Sc2cccc(C(F)(F)F)c2)C(COCCO)C(=O)NC1=O` (centres undefined), 0.52 nM.
To `CCC1=C(Sc2ccccc2)C(COCc2ccc(C)cc2)C(=S)NC1=O` (centres undefined) belongs 422 nM; to `CCOCC1C(=O)NC(=O)C(CC)=C1Sc1cc(Cl)cc(Cl)c1` (centres undefined), 597 nM.
The compound `CC1=C(Sc2cccc(O)c2)C(COCCO)C(=O)NC1=O` (centres undefined) registered an IC50 of 6.9 nM.
To `COc1cccc(SC2=C(C)C(=O)NC(=O)C2COCCO)c1` (centres undefined) belongs 20 nM; to `CC(C)C1=C(Sc2ccccc2)C(COCCO)C(=O)NC1=O` (centres undefined), 31 nM.
Compound `CCOCC1C(=O)NC(=O)C(CC)=C1Sc1cc(C)cc(C)c1` (centres undefined) yielded an IC50 of 210 nM.
